The subject of one assay is IPT-MAO A/B.
Assay: not given
To be noted: read-out: IPT-MAO A/B / K M / Human MAOB; 25 °C, 50 mM Hepes/NaOH pH 7.5, 0.5% v/v reduced Triton X-100.
For `NCCc1ccc(O)c(O)c1` [Dopamine], the Km stood at 300 ± 30 µM.

Take `NCCc1c[nH]c2ccc(O)cc12` [Serotonin]: the Km came out at 100 ± 10 µM.

Another assay relates to T1, IPT-MAO A/B.
T1 construct: full length 522 residues (borders given for the mammalian construct); N-terminal 6xHis; Pichia pastoris KM71; detergent-solubilized, FOS-choline-12
As to the kind of experiment: HRP-coupled spectrophotometric assay of H2O2, […] nm. Format: biochemical, Megalops cyprinoides. To be noted: 25 °C, 50 mM Hepes/NaOH pH 7.5, 0.5% v/v reduced Triton X-100; read-out: IPT-MAO A/B / K M / Human MAOB.
In the case of `NCc1ccccc1` [Benzylamine], the Km was found to be 50 ± 10 µM.

Consider `NCCC(=O)c1ccccc1N` [Kynuramine], for which the Km is 30 ± 4 µM.

As to `NCCc1ccccc1` [Phenethylamine], the Km is 70 ± 10 µM.

`NCCc1ccc(O)cc1` [Tyramine]: the Km was found to be 200 ± 40 µM.

The values are drawn from paper PMC11833248, “Evolutionary and Functional Analysis of Monoamine Oxidase F: A Novel Member of the Monoamine Oxidase Gene Family” (Genome Biology and Evolution, 2025).
